Experimental data published in patent publication US7759345B2, “Antitumoral derivatives of ET-743” (priority 2001, dated 2010).
Where two headings read alike, the source gives them in different places.

How the values were obtained:
MEL-28 = assay: Inhibition of cell growth by counting cells, MEL-28; assay type: cell-based, human; details: three days of incubation, read-out: IC50 (molar) MEL-28
In short: (§1)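 Counts are net cells per well, averaged from duplicate wells, obtained by Coulter counting after trypsinization following 72 h of exposure at 37 °C. Seeding was 1×10^4 cells per well in EMEM/5% FCS with varied sample concentrations, alongside untreated growth controls. IC50 values derive from dose-response curves of % growth.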

DU-145 = assay: Inhibition of cell growth by counting cells, DU-145; assay type: cell-based, human; details: read-out: IC50 (molar) DU-145
In short: as §1

P-388 = assay: Inhibition of cell growth by counting cells, P-388; assay type: cell-based, mouse; details: three days of incubation, read-out: IC50 (molar) P-388
In short: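 IC50 is the sample concentration halving growth, taken from dose-response curves of cell counts (Coulter counter, duplicate wells) relative to drug-free cultures. P-388 (DBA/2 mouse lymphoid neoplasm) cells plated at 1×10^4 per well in EMEM with 5% FCS plus test sample.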

HT-29 = assay: Inhibition of cell growth by counting cells, HT-29; assay type: cell-based, human; details: three days of incubation, read-out: IC50 (molar) HT-29
In short: as §1

A-549 = assay: Inhibition of cell growth by counting cells, A-549; assay type: cell-based, human; details: three days of incubation, read-out: IC50 (molar) A-549
In short: as §1

[1] = Homo sapiens, DU-145, 72 h, three days of incubation

SMILES | IC50 (MEL-28; Homo sapiens, SK-MEL-28, 72 h) [nM] | IC50 (DU-145; [1]) [nM] | IC50 (P-388; Mus musculus, P388, 72 h) [nM] | IC50 (HT-29; Homo sapiens, HT-29, 72 h) [nM] | IC50 (A-549; Homo sapiens, A549, 72 h) [nM] | IC50 (DU-145; Homo sapiens, DU-145, 72 h) [nM] | IC50 (MEL-28) [nM] | IC50 (DU-145; three days of incubation) [nM] | IC50 (P-388) [nM] | IC50 (HT-29) [nM] | IC50 (A-549) [nM]
COc1cc2c(cc1O)CCN[C@]21CS[C@@H]2c3c(OC(=O)C(F)(F)F)c(C)c4c(c3[C@H](COC1=O)N1C2[C@H]2c3c(cc(C)c(OC)c3O)C[C@@H]([C@@H]1C#N)N2C)OCO4 (stereo partly drawn) [Compound 159] | 1.37 | 1.37 | 1.37 | 1.37 | 1.37 |  |  |  |  |  | 
CCCCCCCCCCCCCCCC(=O)Oc1cc2c(cc1OC)[C@@]1(CS[C@@H]3c4c(OC(C)=O)c(C)c5c(c4[C@H](COC1=O)N1C3[C@H]3c4c(cc(C)c(OC)c4OC(=O)CCCCCCCCCCCCCCC)C[C@@H]([C@@H]1C#N)N3C)OCO5)NCC2 (stereo partly drawn) [Compound 17] | 80.2 | 80.2 | 80.2 | 80.2 | 80.2 |  |  |  |  |  | 
CCCCCCCC(=O)Oc1c(C)c2c(c3c1[C@H]1SC[C@]4(NCCc5cc(OC(=O)OC(C)(C)C)c(OC)cc54)C(=O)OC[C@@H]3N3C1[C@H]1c4c(cc(C)c(OC)c4OC(=O)CCCCCCC)C[C@@H]([C@@H]3C#N)N1C)OCO2 (stereo partly drawn) [Compound 120] | 463 | 463 | 463 | 463 | 463 |  |  |  |  |  | 
CCCCCCCC(=O)Oc1c(C)c2c(c3c1[C@H]1SC[C@]4(NCCc5cc(O)c(OC)cc54)C(=O)OC[C@@H]3N3C1[C@H]1c4c(cc(C)c(OC)c4O)C[C@@H]([C@@H]3C#N)N1C)OCO2 (stereo partly drawn) [Compound 144] | 1.17 | 1.17 | 1.17 | 1.17 | 1.17 |  |  |  |  |  | 
COc1cc2c(cc1OC(=O)/C=C/c1ccccc1)CCN[C@]21CS[C@@H]2c3c(OC(C)=O)c(C)c4c(c3[C@H](COC1=O)N1C2[C@H]2c3c(cc(C)c(OC)c3O)C[C@@H]([C@@H]1C#N)N2C(=O)OC(C)(C)C)OCO4 (stereo partly drawn) [Compound 194] | 50.7 | 50.7 | 50.7 | 50.7 | 50.7 |  |  |  |  |  | 
CCCCCCCC(=O)Oc1cc2c(cc1OC)[C@@]1(CS[C@@H]3c4c(OC(C)=O)c(C)c5c(c4[C@H](COC1=O)N1C3[C@H]3c4c(cc(C)c(OC)c4O)C[C@@H]([C@@H]1C#N)N3C(=O)OC(C)(C)C)OCO5)NCC2 (stereo partly drawn) [Compound 195] | 10.2 | 10.2 | 10.2 | 10.2 | 10.2 |  |  |  |  |  | 
COc1cc2c(cc1OC(=O)OC(C)(C)C)CCN[C@]21CS[C@@H]2c3c(OC(C)=O)c(C)c4c(c3[C@H](COC1=O)N1C2[C@H]2c3c(cc(C)c(OC)c3O)C[C@@H]([C@@H]1O)N2C)OCO4 (stereo partly drawn) [Compound 66] | 0.116 | 0.116 | 0.116 | 0.116 | 0.116 |  |  |  |  |  | 
CCCCCCCCCCCCCCCC(=O)Oc1c(C)c2c(c3c1[C@H]1SC[C@]4(NCCc5cc(O)c(OC)cc54)C(=O)OC[C@@H]3N3C1[C@H]1c4c(cc(C)c(OC)c4O)C[C@@H]([C@@H]3C#N)N1C)OCO2 (stereo partly drawn) [Compound 146] | 103 | 103 | 103 | 103 | 103 |  |  |  |  |  | 
CCOc1cc2c(cc1OC)[C@@]1(CS[C@@H]3c4c(OC(C)=O)c(C)c5c(c4[C@H](COC1=O)N1C3[C@H]3c4c(cc(C)c(OC)c4OCC)C[C@@H]([C@@H]1C#N)N3C)OCO5)NCC2 (stereo partly drawn) [Compound 38] | 12.1 |  | 12.1 | 12.1 | 12.1 | 12.1 |  |  |  |  | 
COc1cc2c(cc1OC(=O)OC(C)(C)C)CCN[C@]21CS[C@@H]2c3c(OC(C)=O)c(C)c4c(c3[C@H](COC1=O)N1C2[C@H]2c3c(cc(C)c(OC)c3OC(=O)OC(C)(C)C)C[C@@H]([C@@H]1C#N)N2C)OCO4 (stereo partly drawn) [Compound 5] | 0.515 | 0.515 | 0.515 | 0.515 | 0.515 |  |  |  |  |  | 
CCCCCCCCCCCCCCCC(=O)Oc1cc2c(cc1OC)[C@@]1(CS[C@@H]3c4c(OC(C)=O)c(C)c5c(c4[C@H](COC1=O)N1C3[C@H]3c4c(cc(C)c(OC)c4OC(=O)CCCCCCCCCCCCCCC)C[C@@H]([C@@H]1O)N3C)OCO5)NCC2 (stereo partly drawn) [Compound 83] | 80.8 | 80.8 | 80.8 | 80.8 | 80.8 |  |  |  |  |  | 
CCCC(=O)Oc1c(C)c2c(c3c1[C@H]1SC[C@]4(NCCc5cc(OC(=O)OC(C)(C)C)c(OC)cc54)C(=O)OC[C@@H]3N3C1[C@H]1c4c(cc(C)c(OC)c4O)C[C@@H]([C@@H]3C#N)N1C)OCO2 (stereo partly drawn) [Compound 111] | 1.11 |  | 1.11 | 1.11 | 1.11 | 1.11 |  |  |  |  | 
COc1cc2c(cc1OC(=O)CCCCC1SCC3NC(=O)NC31)CCNC21CSC2c3c(OC(C)=O)c(C)c4c(c3C(COC1=O)N1C(C#N)C3Cc5cc(C)c(OC)c(OC(=O)CCCCC6SCC7NC(=O)NC76)c5C(C21)N3C)OCO4 (stereo not drawn) [Compound 20] |  |  |  |  |  |  | 8.18 | 8.18 | 8.18 | 8.18 | 8.18
CCCC(=O)Oc1cc2c(cc1OC)[C@@]1(CS[C@@H]3c4c(OC(C)=O)c(C)c5c(c4[C@H](COC1=O)N1C3[C@H]3c4c(cc(C)c(OC)c4O)C[C@@H]([C@@H]1C#N)N3C(=O)OC(C)(C)C)OCO5)NCC2 (stereo partly drawn) [Compound 192] | 5.39 |  | 5.39 | 5.39 | 5.39 | 5.39 |  |  |  |  | 
C=CCOC(=O)NC(CSCC1c2ccccc2-c2ccccc21)C(=O)Oc1cc2c(cc1OC)[C@@]1(CS[C@@H]3c4c(OC(C)=O)c(C)c5c(c4[C@H](COC1=O)N1C3[C@H]3c4c(cc(C)c(OC)c4O)C[C@@H]([C@@H]1C#N)N3C)OCO5)NCC2 (stereo partly drawn) [Compound 18] | 0.441 | 0.441 | 0.441 | 0.441 | 0.441 |  |  |  |  |  | 
COc1cc2c(cc1OCc1ccccc1)CCN[C@]21CS[C@@H]2c3c(OC(C)=O)c(C)c4c(c3[C@H](COC1=O)N1C2[C@H]2c3c(cc(C)c(OC)c3O)C[C@@H]([C@@H]1O)N2C)OCO4 (stereo partly drawn) [Compound 71] | 0.588 | 0.588 | 0.588 | 0.588 | 0.588 |  |  |  |  |  | 
COc1cc2c(cc1OCc1ccccc1)CCN[C@]21CS[C@@H]2c3c(OC(C)=O)c(C)c4c(c3[C@H](COC1=O)N1C2[C@H]2c3c(cc(C)c(OC)c3OCc3ccccc3)C[C@@H]([C@@H]1O)N2C)OCO4 (stereo partly drawn) [Compound 91] | 106 | 106 | 106 | 106 | 106 |  |  |  |  |  | 
CCCCCCCCCCCCCCCC(=O)Oc1cc2c(cc1OC)[C@@]1(CS[C@@H]3c4c(OC(C)=O)c(C)c5c(c4[C@H](COC1=O)N1C3[C@H]3c4c(cc(C)c(OC)c4OC(=O)CCCCCCCCCCCCCCC)C[C@@H]([C@@H]1C#N)N3C(=O)OC(C)(C)C)OCO5)NCC2 (stereo partly drawn) [Compound 198] | 7500 | 7500 | 7500 | 7500 | 7500 |  |  |  |  |  | 
C=CCOC(=O)NC(CSCC1c2ccccc2-c2ccccc21)C(=O)Oc1cc2c(cc1OC)[C@@]1(CS[C@@H]3c4c(OC(C)=O)c(C)c5c(c4[C@H](COC1=O)N1C3[C@H]3c4c(cc(C)c(OC)c4O)C[C@@H]([C@@H]1O)N3C)OCO5)NCC2 (stereo partly drawn) [Compound 62] | 0.888 | 0.888 | 0.888 | 0.888 | 0.888 |  |  |  |  |  | 
CCCCCCCCCCCCCCCC(=O)Oc1cc2c(cc1OC)[C@@]1(CS[C@@H]3c4c(OC(C)=O)c(C)c5c(c4[C@H](COC1=O)N1C3[C@@H]3N[C@@H](Cc4cc(C)c(OC)c(OC(=O)CCCCCCCCCCCCCCC)c43)[C@@H]1C#N)OCO5)NCC2 (stereo partly drawn) [Compound 208] | 8110 | 8110 | 8110 | 8110 | 8110 |  |  |  |  |  | 
COc1cc2c(cc1OC(=O)OC(C)(C)C)CCN[C@]21CS[C@@H]2c3c(OC(=O)C(F)(F)F)c(C)c4c(c3[C@H](COC1=O)N1C2[C@H]2c3c(cc(C)c(OC)c3O)C[C@@H]([C@@H]1C#N)N2C)OCO4 (stereo partly drawn) [Compound 107] | 1.08 | 1.08 | 1.08 | 1.08 | 1.08 |  |  |  |  |  | 
COc1cc2c(cc1OC(C)=O)CCN[C@]21CS[C@@H]2c3c(OC(C)=O)c(C)c4c(c3[C@H](COC1=O)N1C2[C@H]2c3c(cc(C)c(OC)c3O)C[C@@H]([C@@H]1C#N)N2C(=O)OC(C)(C)C)OCO4 (stereo partly drawn) [Compound 191] | 1.11 | 1.11 | 1.11 | 1.11 | 1.11 |  |  |  |  |  | 
COc1cc2c(cc1O)CCN[C@]21CS[C@@H]2c3c(OC(C)=O)c(C)c4c(c3[C@H](COC1=O)N1C2[C@H]2c3c(cc(C)c(OC)c3OC(=O)OC(C)(C)C)C[C@@H]([C@@H]1C#N)N2C)OCO4 (stereo partly drawn) [Compound 47] | 1.15 | 1.15 | 1.15 | 1.15 | 1.15 |  |  |  |  |  | 
CCCCCCCC(=O)Oc1cc2c(cc1OC)[C@@]1(CS[C@@H]3c4c(OC(C)=O)c(C)c5c(c4[C@H](COC1=O)N1C3[C@H]3c4c(cc(C)c(OC)c4OC(=O)CCCCCCC)C[C@@H]([C@@H]1C#N)N3C(=O)OC(C)(C)C)OCO5)NCC2 (stereo partly drawn) [Compound 196] | 9020 | 9020 | 9020 | 9020 | 9020 |  |  |  |  |  | 
